Biological target: T1, Metabotropic glutamate receptor 7 (Rattus norvegicus, UniProt P35400)
Assay: Positive allosteric modulation of rat mGlu7 receptor expressed in HEK293 cells co-expressing Gai5 assessed as potentiation of L-AP4-induced calcium mobilization preincubated for 140 secs and treated with EC20 L-AP4 for 125 secs and followed by subsequent addition of EC80 L-AP4 by Fluo-4-AM dye based fluorescence assay
Format: functional, cell-based
Conditions: read-out: EC50

T1 sequence (P35400 whole entry): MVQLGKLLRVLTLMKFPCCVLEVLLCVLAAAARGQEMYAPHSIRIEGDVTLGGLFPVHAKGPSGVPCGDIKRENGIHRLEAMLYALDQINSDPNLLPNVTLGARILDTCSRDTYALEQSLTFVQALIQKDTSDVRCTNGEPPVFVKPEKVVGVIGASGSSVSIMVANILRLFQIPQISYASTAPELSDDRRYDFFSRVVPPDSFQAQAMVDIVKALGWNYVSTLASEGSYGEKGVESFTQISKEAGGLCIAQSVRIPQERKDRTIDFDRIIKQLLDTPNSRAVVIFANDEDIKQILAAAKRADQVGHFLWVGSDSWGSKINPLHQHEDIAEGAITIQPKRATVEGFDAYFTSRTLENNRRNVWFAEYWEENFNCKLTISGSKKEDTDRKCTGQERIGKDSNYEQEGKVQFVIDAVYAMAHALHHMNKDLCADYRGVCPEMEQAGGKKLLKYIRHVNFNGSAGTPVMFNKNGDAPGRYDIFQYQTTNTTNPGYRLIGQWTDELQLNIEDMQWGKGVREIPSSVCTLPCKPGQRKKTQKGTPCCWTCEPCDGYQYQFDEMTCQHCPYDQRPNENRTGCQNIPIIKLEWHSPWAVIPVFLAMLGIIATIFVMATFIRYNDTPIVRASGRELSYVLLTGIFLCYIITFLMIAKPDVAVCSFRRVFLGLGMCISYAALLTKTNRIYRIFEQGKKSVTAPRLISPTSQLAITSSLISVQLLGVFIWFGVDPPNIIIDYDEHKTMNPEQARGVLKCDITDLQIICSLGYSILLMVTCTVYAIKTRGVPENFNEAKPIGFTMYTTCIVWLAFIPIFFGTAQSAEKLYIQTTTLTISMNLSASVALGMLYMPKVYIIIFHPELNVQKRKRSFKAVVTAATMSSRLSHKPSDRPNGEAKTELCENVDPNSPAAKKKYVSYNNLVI

| Compound | EC50 [nM] |
| --- | --- |
| CC(C)Oc1cc(F)cc2c(N3CCN(c4ccccc4F)CC3)c(C#N)cnc12 | 690 |
| N#Cc1cnc2c(O)cc(F)cc2c1N1CCN(c2ccccc2F)CC1 | > 10000 |
| N#Cc1cnc2c(OC3CCOC3)cccc2c1N1CCN(c2ccccc2F)CC1 (single isomer, unassigned; (-)) [listing 1 of 2 here] | 1100 |
| N#Cc1cnc2c(O)cccc2c1N1CCN(c2ccccc2F)CC1 | > 10000 |
| N#Cc1cnc2c(-n3ccnc3)cccc2c1N1CCN(c2ccccc2F)CC1 | 6700 |
| N#Cc1cnc2c(N3CCCCC3)cccc2c1N1CCN(c2ccccc2F)CC1 | > 10000 |
| N#Cc1cnc2c(-n3cccn3)cccc2c1N1CCN(c2ccccc2F)CC1 | > 10000 |
| CC(C)Oc1cccc2c(N3CCN(c4ccccc4F)CC3)c(C#N)cnc12 | 1250 |
| N#Cc1cnc2c(OCC3CCOC3)cccc2c1N1CCN(c2ccccc2F)CC1 (single isomer, unassigned; (+)) [listing 1 of 2 here] | 1900 |
| N#Cc1cnc2c(OC(F)F)cc(F)cc2c1N1CCN(c2ccccc2F)CC1 | 3800 |
| N#Cc1cnc2c(OC3CCC3)cc(F)cc2c1N1CCN(c2ccccc2F)CC1 | > 10000 |
| N#Cc1cnc2c(OC3CCOC3)cccc2c1N1CCN(c2ccccc2F)CC1 (racemic) [listing 1 of 2 here] | 1300 |
| N#Cc1cnc2c(N3CCOCC3)cccc2c1N1CCN(c2ccccc2F)CC1 | 1300 |
| N#Cc1cnc2c(OC3CCOC3)cc(F)cc2c1N1CCN(c2ccccc2F)CC1 (stereo unspecified) | 510 |
| COc1c(F)c(F)cc2c(N3CCN(c4ccccc4F)CC3)c(C#N)cnc12 | 1100 |
| N#Cc1cnc2c(OCC3CCOC3)cccc2c1N1CCN(c2ccccc2F)CC1 (stereo in doubt; (-)-20f) [listing 1 of 2 here] | 1300 |
| [2H]C([2H])([2H])Oc1cccc2c(N3CCN(c4ccccc4F)CC3)c(C#N)cnc12 | 1500 |
| N#Cc1cnc2c(OCC3CCOC3)cc(F)cc2c1N1CCN(c2ccccc2F)CC1 (stereo unspecified) | 650 |
| N#Cc1cnc2c(N3CCC(F)(F)CC3)cccc2c1N1CCN(c2ccccc2F)CC1 | > 10000 |
| N#Cc1cnc2c(OC3CCC3)cccc2c1N1CCN(c2ccccc2F)CC1 | 1800 |
| N#Cc1cnc2c(N3CCCC3)cccc2c1N1CCN(c2ccccc2F)CC1 | > 10000 |
| CC1CN(c2cccc3c(N4CCN(c5ccccc5F)CC4)c(C#N)cnc23)CCO1 (stereo unspecified) | 7100 |
| COc1c(F)ccc2c(N3CCN(c4ccccc4F)CC3)c(C#N)cnc12 | 1800 |
| N#Cc1cnc2c(OC3CCOC3)cccc2c1N1CCN(c2ccccc2F)CC1 (single isomer, unassigned; (+)) [listing 1 of 2 here] | 1100 |
| COc1ccc(F)c2c(N3CCN(c4ccccc4F)CC3)c(C#N)cnc12 | > 10000 |
| N#Cc1cnc2c(-n3cncn3)cccc2c1N1CCN(c2ccccc2F)CC1 | > 10000 |
| N#Cc1cnc2c(OC(F)F)cccc2c1N1CCN(c2ccccc2F)CC1 | > 10000 |
| N#Cc1cnc2c(OCC3CCOC3)cccc2c1N1CCN(c2ccccc2F)CC1 (racemic) [listing 1 of 2 here] | 1300 |

Biological target: T1, Metabotropic glutamate receptor 7
Assay: Positive allosteric modulation of rat mGlu7 expressed in HEK293 cells co- expressing GIRK assessed as potentiation of L-AP4-induced thallium flux incubated for 140 sec by FluoZin2-AM dye based fluorescence analysis
Format: cell-based
Conditions: not given

| Compound | EC50 [nM] |
| --- | --- |
| CC(C)Oc1cc(F)cc2c(N3CCN(c4ccccc4F)CC3)c(C#N)cnc12 | 750 |
| N#Cc1cnc2c(OC3CCOC3)cccc2c1N1CCN(c2ccccc2F)CC1 (racemic) [listing 1 of 2 here] | 1000 |
| N#Cc1cnc2c(N3CCOCC3)cccc2c1N1CCN(c2ccccc2F)CC1 | 710 |

Test system: not listed separately
Assay: Unbound plasma to brain permeability coefficient, Kp of the compound in Sprague-Dawley rat at 0.2 mg/kg, iv measured after 0.25 hrs by LC-MS/MS analysis
Format: ADME, organism-based
Conditions: read-out: K(p,uu,brain)

| Compound | Kp uu at 0.25 h |
| --- | --- |
| CC(C)Oc1cc(F)cc2c(N3CCN(c4ccccc4F)CC3)c(C#N)cnc12 | 1 |
| N#Cc1cnc2c(OC3CCOC3)cccc2c1N1CCN(c2ccccc2F)CC1 (racemic) [listing 1 of 2 here] | 0.79 |
| N#Cc1cnc2c(N3CCOCC3)cccc2c1N1CCN(c2ccccc2F)CC1 | 1.24 |

Biological target: Metabotropic glutamate receptor 7 (Rattus norvegicus) (UniProt P35400)
Assay: Positive allosteric modulation of rat mGlu7 receptor expressed in HEK293 cells co-expressing Gai5 assessed as potentiation of L-AP4-induced calcium mobilization preincubated for 140 secs and treated with EC20 L-AP4 for 125 secs and followed by subsequent addition of EC80 L-AP4 by Fluo-4-AM dye based fluorescence assay relative to maximal induction of L-AP4
Format: functional, cell-based
Conditions: filed as positive allosteric modulator, time 140.0 sec

Metabotropic glutamate receptor 7 (Rattus norvegicus), sequence (P35400 whole entry): as above

| Compound | Activity [%] |
| --- | --- |
| CC(C)Oc1cc(F)cc2c(N3CCN(c4ccccc4F)CC3)c(C#N)cnc12 | 82 |
| N#Cc1cnc2c(O)cc(F)cc2c1N1CCN(c2ccccc2F)CC1 | 90 |
| N#Cc1cnc2c(OCC3CCOC3)cccc2c1N1CCN(c2ccccc2F)CC1 (racemic) [listing 2 of 2 here] | 88 |
| N#Cc1cnc2c(O)cccc2c1N1CCN(c2ccccc2F)CC1 | 90 |
| N#Cc1cnc2c(OC3CCOC3)cccc2c1N1CCN(c2ccccc2F)CC1 (single isomer, unassigned; (-)) [listing 2 of 2 here] | 70 |
| N#Cc1cnc2c(-n3ccnc3)cccc2c1N1CCN(c2ccccc2F)CC1 | 81 |
| N#Cc1cnc2c(N3CCCCC3)cccc2c1N1CCN(c2ccccc2F)CC1 | 24 |
| N#Cc1cnc2c(-n3cccn3)cccc2c1N1CCN(c2ccccc2F)CC1 | 22 |
| CC(C)Oc1cccc2c(N3CCN(c4ccccc4F)CC3)c(C#N)cnc12 | 67 |
| N#Cc1cnc2c(OC(F)F)cc(F)cc2c1N1CCN(c2ccccc2F)CC1 | 98 |
| N#Cc1cnc2c(OC3CCC3)cc(F)cc2c1N1CCN(c2ccccc2F)CC1 | 23 |
| N#Cc1cnc2c(N3CCOCC3)cccc2c1N1CCN(c2ccccc2F)CC1 | 72 |
| N#Cc1cnc2c(OC3CCOC3)cc(F)cc2c1N1CCN(c2ccccc2F)CC1 (stereo unspecified) | 71 |
| COc1c(F)c(F)cc2c(N3CCN(c4ccccc4F)CC3)c(C#N)cnc12 | 62 |
| N#Cc1cnc2c(OC3CCOC3)cccc2c1N1CCN(c2ccccc2F)CC1 (single isomer, unassigned; (+)) [listing 2 of 2 here] | 85 |
| N#Cc1cnc2c(OCC3CCOC3)cc(F)cc2c1N1CCN(c2ccccc2F)CC1 (stereo unspecified) | 76 |
| N#Cc1cnc2c(N3CCC(F)(F)CC3)cccc2c1N1CCN(c2ccccc2F)CC1 | 22 |
| N#Cc1cnc2c(OCC3CCOC3)cccc2c1N1CCN(c2ccccc2F)CC1 (single isomer, unassigned; (+)) [listing 2 of 2 here] | 77 |
| N#Cc1cnc2c(OC3CCC3)cccc2c1N1CCN(c2ccccc2F)CC1 | 67 |
| N#Cc1cnc2c(N3CCCC3)cccc2c1N1CCN(c2ccccc2F)CC1 | 22 |
| CC1CN(c2cccc3c(N4CCN(c5ccccc5F)CC4)c(C#N)cnc23)CCO1 (stereo unspecified) | 84 |
| COc1c(F)ccc2c(N3CCN(c4ccccc4F)CC3)c(C#N)cnc12 | 53 |
| N#Cc1cnc2c(OC3CCOC3)cccc2c1N1CCN(c2ccccc2F)CC1 (racemic) [listing 2 of 2 here] | 74 |
| COc1ccc(F)c2c(N3CCN(c4ccccc4F)CC3)c(C#N)cnc12 | 35 |
| N#Cc1cnc2c(OCC3CCOC3)cccc2c1N1CCN(c2ccccc2F)CC1 (stereo in doubt; (-)-20f) [listing 2 of 2 here] | 89 |
| N#Cc1cnc2c(-n3cncn3)cccc2c1N1CCN(c2ccccc2F)CC1 | 23 |
| N#Cc1cnc2c(OC(F)F)cccc2c1N1CCN(c2ccccc2F)CC1 | 68 |

Test system: not listed separately
Assay: Plasma to brain permeability coefficient, Kp of the compound in Sprague-Dawley rat at 0.2 mg/kg, iv measured after 0.25 hrs by LC-MS/MS analysis
Format: ADME, organism-based
Conditions: not given

| Compound | Kp at 0.25 h |
| --- | --- |
| CC(C)Oc1cc(F)cc2c(N3CCN(c4ccccc4F)CC3)c(C#N)cnc12 | 4.99 |
| N#Cc1cnc2c(OC3CCOC3)cccc2c1N1CCN(c2ccccc2F)CC1 (racemic) [listing 1 of 2 here] | 4.36 |
| N#Cc1cnc2c(N3CCOCC3)cccc2c1N1CCN(c2ccccc2F)CC1 | 6.84 |

Test system: not listed separately
Assay: Hepatic intrinsic clearance in rat liver microsomes at 1 uM preincubated for 5 mins followed by NADPH addition and measured up to 45 mins by LC-MS/MS analysis
Format: ADME, Microsome
Conditions: read-out: CLH

| Compound | CLint scaled at 1 µM [mL/min/kg] |
| --- | --- |
| CC(C)Oc1cc(F)cc2c(N3CCN(c4ccccc4F)CC3)c(C#N)cnc12 | 50.7 |
| N#Cc1cnc2c(OC3CCOC3)cccc2c1N1CCN(c2ccccc2F)CC1 (racemic) [listing 1 of 2 here] | 54 |
| N#Cc1cnc2c(N3CCOCC3)cccc2c1N1CCN(c2ccccc2F)CC1 | 58.6 |

Biological target: Sodium-dependent dopamine transporter (Homo sapiens, UniProt Q01959)
Assay: Displacement of […] from recombinant human Dopamine transporter after 120 mins by scintillation counting analysis
Format: ADME
Conditions: not given

Sodium-dependent dopamine transporter, sequence (Q01959 whole entry): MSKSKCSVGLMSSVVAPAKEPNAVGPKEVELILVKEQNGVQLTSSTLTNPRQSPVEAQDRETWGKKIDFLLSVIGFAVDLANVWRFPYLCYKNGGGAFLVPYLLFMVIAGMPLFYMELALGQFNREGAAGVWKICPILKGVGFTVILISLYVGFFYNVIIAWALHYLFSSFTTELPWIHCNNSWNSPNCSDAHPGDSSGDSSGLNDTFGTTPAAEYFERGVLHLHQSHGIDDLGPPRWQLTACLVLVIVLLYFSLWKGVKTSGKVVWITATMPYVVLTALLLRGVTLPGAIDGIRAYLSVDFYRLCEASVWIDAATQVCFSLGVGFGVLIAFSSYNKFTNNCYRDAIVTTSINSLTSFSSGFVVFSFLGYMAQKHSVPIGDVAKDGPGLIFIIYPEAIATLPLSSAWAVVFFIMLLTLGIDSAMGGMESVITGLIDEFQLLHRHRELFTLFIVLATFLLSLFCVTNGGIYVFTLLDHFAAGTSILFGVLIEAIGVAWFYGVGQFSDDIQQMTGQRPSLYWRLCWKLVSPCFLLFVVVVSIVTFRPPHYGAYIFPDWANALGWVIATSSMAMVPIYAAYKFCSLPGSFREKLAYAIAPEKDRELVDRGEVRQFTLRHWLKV

| Compound | Ki [µM] | IC50 [µM] |
| --- | --- | --- |
| CC(C)Oc1cc(F)cc2c(N3CCN(c4ccccc4F)CC3)c(C#N)cnc12 | > 10 |  |
| N#Cc1cnc2c(OC3CCOC3)cccc2c1N1CCN(c2ccccc2F)CC1 (racemic) [listing 1 of 2 here] | > 10 |  |
| N#Cc1cnc2c(N3CCOCC3)cccc2c1N1CCN(c2ccccc2F)CC1 | > 10 |  |
| COc1c(F)c(F)cc2c(N3CCN(c4ccccc4F)CC3)c(C#N)cnc12 |  | 2.2 |
| COc1c(F)ccc2c(N3CCN(c4ccccc4F)CC3)c(C#N)cnc12 |  | 3 |
| COc1ccc(F)c2c(N3CCN(c4ccccc4F)CC3)c(C#N)cnc12 |  | 4 |

Test system: not listed separately
Assay: Fraction unbound in rat plasma at 5 uM incubated for 4 hrs by equilibrium dialysis based LC-MS/MS analysis
Format: ADME, cell-free
Conditions: not given

| Compound | fraction unbound at 4 h, 5 µM |
| --- | --- |
| CC(C)Oc1cc(F)cc2c(N3CCN(c4ccccc4F)CC3)c(C#N)cnc12 | 0.005 |
| N#Cc1cnc2c(OC3CCOC3)cccc2c1N1CCN(c2ccccc2F)CC1 (racemic) [listing 1 of 2 here] | 0.03 |
| N#Cc1cnc2c(N3CCOCC3)cccc2c1N1CCN(c2ccccc2F)CC1 | 0.01 |

Test system: not listed separately
Assay: Fraction unbound in mouse plasma at 5 uM incubated for 4 hrs by equilibrium dialysis based LC-MS/MS analysis
Format: ADME, cell-free
Conditions: not given

| Compound | fraction unbound at 4 h, 5 µM |
| --- | --- |
| CC(C)Oc1cc(F)cc2c(N3CCN(c4ccccc4F)CC3)c(C#N)cnc12 | 0.004 |
| N#Cc1cnc2c(OC3CCOC3)cccc2c1N1CCN(c2ccccc2F)CC1 (racemic) [listing 1 of 2 here] | 0.02 |
| N#Cc1cnc2c(N3CCOCC3)cccc2c1N1CCN(c2ccccc2F)CC1 | 0.01 |

Biological target: Metabotropic glutamate receptor 7 (Rattus norvegicus) (UniProt P35400)
Assay: Positive allosteric modulation of rat mGlu7 expressed in HEK293 cells co- expressing GIRK assessed as potentiation of L-AP4-induced thallium flux incubated for 140 sec by FluoZin2-AM dye based fluorescence analysis relative to maximal induction of L-AP4
Format: cell-based
Conditions: filed as positive allosteric modulator

| Compound | Activity [%] |
| --- | --- |
| CC(C)Oc1cc(F)cc2c(N3CCN(c4ccccc4F)CC3)c(C#N)cnc12 | 54.5 |
| N#Cc1cnc2c(N3CCOCC3)cccc2c1N1CCN(c2ccccc2F)CC1 | 29.5 |
| N#Cc1cnc2c(OC3CCOC3)cccc2c1N1CCN(c2ccccc2F)CC1 (racemic) [listing 2 of 2 here] | 62.2 |

Test system: not listed separately
Assay: Hepatic intrinsic clearance in mouse liver microsomes at 1 uM preincubated for 5 mins followed by NADPH addition and measured up to 45 mins by LC-MS/MS analysis
Format: ADME, Microsome
Conditions: read-out: CLH

| Compound | CLint scaled at 1 µM [mL/min/kg] |
| --- | --- |
| CC(C)Oc1cc(F)cc2c(N3CCN(c4ccccc4F)CC3)c(C#N)cnc12 | 76.2 |
| N#Cc1cnc2c(OC3CCOC3)cccc2c1N1CCN(c2ccccc2F)CC1 (racemic) [listing 1 of 2 here] | 75.8 |
| N#Cc1cnc2c(N3CCOCC3)cccc2c1N1CCN(c2ccccc2F)CC1 | 76.2 |

Test system: not listed separately
Assay: Fraction unbound in rat brain at 5 uM incubated for 6 hrs by equilibrium dialysis based LC-MS/MS analysis
Format: ADME, tissue-based
Conditions: not given

| Compound | fraction unbound at 6 h, 5 µM |
| --- | --- |
| CC(C)Oc1cc(F)cc2c(N3CCN(c4ccccc4F)CC3)c(C#N)cnc12 | 0.001 |
| N#Cc1cnc2c(OC3CCOC3)cccc2c1N1CCN(c2ccccc2F)CC1 (racemic) [listing 1 of 2 here] | 0.006 |
| N#Cc1cnc2c(N3CCOCC3)cccc2c1N1CCN(c2ccccc2F)CC1 | 0.002 |

Test system: not listed separately
Assay: Fraction unbound in mouse brain at 5 uM incubated for 6 hrs by equilibrium dialysis based LC-MS/MS analysis
Format: ADME, tissue-based
Conditions: not given

| Compound | fraction unbound at 6 h, 5 µM |
| --- | --- |
| CC(C)Oc1cc(F)cc2c(N3CCN(c4ccccc4F)CC3)c(C#N)cnc12 | 0.001 |
| N#Cc1cnc2c(OC3CCOC3)cccc2c1N1CCN(c2ccccc2F)CC1 (racemic) [listing 1 of 2 here] | 0.01 |
| N#Cc1cnc2c(N3CCOCC3)cccc2c1N1CCN(c2ccccc2F)CC1 | 0.002 |

From ChEMBL document CHEMBL4665820, “Discovery of VU6027459: A First-in-Class Selective and CNS Penetrant mGlu Positive Allosteric Modulator Tool Compound” (ACS Med Chem Lett, 2020)
